Measurements published in paper PMC7181131, “N-Pyrazinoyl Substituted Amino Acids as Potential Antimycobacterial Agents—the Synthesis and Biological Evaluation of Enantiomers” (Molecules, 2020).
Converted amounts (≈) assume the structure as drawn. Read-outs that look alike come from different tables or passages of the source.

How the values were obtained:
[1] = tested on: Aspergillus fumigatus ATCC 204305; test: Antifungal microdilution broth method, AF; type: cell-based; conditions: ATCC204305, 48 h, read-out: MIC AF
[2] = tested on: M. smegmatis DSM 43465 (ATCC 607); test: Microplate Alamar Blue Assay (MABA) microdilution, M. smegmatis; type: cell-based, Mycobacterium smegmatis; conditions: Mycolicibacterium smegmatis
[3] = tested on: Klebsiella pneumoniae CCM 4415 (ATCC 10031); test: Antibacterial microdilution broth method, KP; conditions: read after 24 h of incubation
[4] = tested on: Staphylococcus epidermidis CCM 4418 (ATCC 12228); test: Antibacterial microdilution broth method, SE; type: cell-based; conditions: 24 h, read-out: MIC SE
[5] = tested on: Lichtheimia corymbifera CCM 8077; test: Antifungal microdilution broth method, LC; type: cell-based; conditions: CCM8077, 48 h, read-out: MIC LC
[6] = tested on: Candida krusei CCM 8271 (ATCC 6258); test: Antifungal microdilution broth method, CK; type: cell-based; conditions: Pichia kudriavzevii, 24 h, read-out: MIC CK
[7] = tested on: Candida albicans CCM 8320 (ATCC 24433); test: Antifungal microdilution broth method, CA; type: cell-based; conditions: 24 h, read-out: MIC CA
[8] = tested on: Trichophyton interdigitale CCM 8377 (ATCC 9533); test: Antifungal microdilution broth method, TI; type: cell-based; conditions: 48 h, read-out: MIC TI
[9] = tested on: Aspergillus flavus CCM 8363; test: Antifungal microdilution broth method, AFla; type: cell-based; conditions: CCM8363, read after 48 h (filamentous fungi), read-out: MIC AFla
Experimental: 6. In vitro antifungal activity screening
Antifungal activity evaluation was performed using a microdilution broth method according to EUCAST instructions (The European Committee on Antimicrobial Susceptibility Testing) with slight modifications. Eight fungal strains (four yeast and four mould strains) were used for antifungal […]
and Trichophyton interdigitale CCM 8377 (ATCC 9533). Tested strains were purchased from the Czech Collection of Microorganisms (CCM, Brno, Czech Republic) or from the American Type Collection Cultures (ATCC, Manassas, VA, USA). Tested compounds were dissolved in DMSO and diluted in a twofold manner with RPMI 1640 medium, with glutamine and 2% glucose, buffered to pH 7.0 with MOPS (3-morpholinopropane-1-sulfonic acid). The final concentration of DMSO in the testing […]
Static incubation was performed in the dark and in humid atmosphere, at 35±2 °C, for 24 and 48 h (72 and 120 h for Trichophyton interdigitale respectively). Positive controls consisted of test microbe solely, while negative controls consisted of cultivation medium and DMSO. Visual inspection and metabolic activity indicator, Alamar Blue (ThermoFisher Scientific), were used for MIC endpoint evaluation. The internal quality standards, amphotericin B (Sigma-Aldrich) and voriconazole (Toronto research Chemicals, CA) were involved in assays (for MIC of standards see Table S5). All experiments were conducted in duplicates.
For the results to be valid, the difference in MIC for one compound determined from two parallel measurements must not be greater than one step on the dilution scale.

[10] = tested on: Mycobacterium aurum DSM 43999 (ATCC 23366); test: Microplate Alamar Blue Assay (MABA) microdilution, M. aurum; type: cell-based; conditions: Mycolicibacterium aurum
[11] = tested on: Mtb H37Ra ITM-M006710 (ATCC 9431); test: Microplate Alamar Blue Assay (MABA) microdilution, Mtb H37Ra; type: cell-based, Mycobacterium tuberculosis; conditions: Mycobacterium tuberculosis
[12] = tested on: Candida parapsilosis CCM 8260 (ATCC 22019); test: Antifungal microdilution broth method, CP; type: cell-based; conditions: Lodderomyces parapsilosis, 24 h, read-out: MIC CP
[13] = tested on: Candida tropicalis CCM 8264 (ATCC 750); test: Antifungal microdilution broth method, CT; type: cell-based; conditions: 24 h, read-out: MIC CT
[14] = pH 6, read-out: MIC M. smegmatis µg/mL
[15] = pH 6.6, read-out: MIC M. smegmatis
[16] = pH 6, read-out: MIC M. aurum µg/mL
[17] = pH 6.6, read-out: MIC Mtb H37Ra
[18] = pH 6, calculated from µg/mL, read-out: MIC Mtb H37Ra

| SMILES | MIC [1] [µM] | MIC [2, 14] [µg/mL] | MIC [2, 15] [µg/mL] | MIC KP [3] [µM] | MIC [4] [µM] | MIC [5] [µM] | MIC [6] [µM] | MIC [7] [µM] | MIC [8] [µM] | MIC [9] [µM] | MIC [10, 16] [µg/mL] | MIC ([10]; pH 6.6, read-out: MIC M. aurum) [µg/mL] | MIC ([11]; pH 6) [µg/mL] | MIC ([11]; pH 6, read-out: MIC Mtb H37Ra) [µg/mL] | MIC [11, 17] [µg/mL] | MIC [11, 18] [µM] | MIC [12] [µM] | MIC [13] [µM] |
| --- | --- | --- | --- | --- | --- | --- | --- | --- | --- | --- | --- | --- | --- | --- | --- | --- | --- | --- |
| CCOC(=O)CC[C@H](NC(=O)c1cnccn1)C(=O)OCC [PC-L-Glu-diEt, diethyl (pyrazine-2-carbonyl)-L-glutamate] | > 500 | ≥ 500 | ≥ 500 | > 500 | > 500 | > 500 | > 500 | > 500 | > 500 | > 500 | ≥ 500 | ≥ 500 | 31.2 | 31.2 | ≥ 500 | 101 | > 500 | > 500 |
| CCOC(=O)[C@@H](Cc1c[nH]c2ccccc12)NC(=O)c1cnccn1 [PC-D-Trp-Et, ethyl (pyrazine-2-carbonyl)-D-tryptophanate] | > 500 | 250 (≈ 739 µM) | 250 (≈ 739 µM) | > 500 | > 500 | > 500 | > 500 | > 500 | > 500 | > 500 | 62.5 (≈ 185 µM) | 250 (≈ 739 µM) | 62.5 | 62.5 | 125 | 185 | > 500 | > 500 |
| COC(=O)[C@@H](NC(=O)c1cnccn1)[C@@H](C)O [PC-L-Thr-Me, methyl (pyrazine-2-carbonyl)-L-threoninate] | > 500 | ≥ 500 | ≥ 500 | > 500 | > 500 | > 500 | > 500 | > 500 | 500 (≈ 120 µg/mL) | > 500 | ≥ 500 | ≥ 500 | ≥ 500 | ≥ 500 | ≥ 500 | ≥ 2090 | > 500 | > 500 |
| CCOC(=O)C[C@H](NC(=O)c1cnccn1)C(=O)OCC [PC-L-Asp-diEt, diethyl (pyrazine-2-carbonyl)-L-aspartate] | > 500 | ≥ 125 | ≥ 500 | > 500 | 500 (≈ 148 µg/mL) | > 500 | > 500 | > 500 | > 500 | > 500 | ≥ 125 | ≥ 500 | ≥ 125 | ≥ 125 | ≥ 500 | ≥ 423 | > 500 | > 500 |
| COC(=O)[C@@H](COC(C)(C)C)NC(=O)c1cnccn1 [PC-D-OtBu-Ser-Me, methyl O-(tert-butyl)-N-(pyrazine-2-carbonyl)-D-serinate] | > 500 | ≥ 500 | ≥ 500 | > 500 | > 500 | > 500 | > 500 | > 500 | > 500 | > 500 | ≥ 500 | ≥ 500 | ≥ 500 | ≥ 500 | ≥ 500 | ≥ 1780 | > 500 | > 500 |
| COC(=O)[C@@H](CO)NC(=O)c1cnccn1 [PC-D-Ser-Me, methyl (pyrazine-2-carbonyl)-D-serinate] | > 500 | ≥ 500 | ≥ 500 | > 500 | > 500 | > 500 | > 500 | > 500 | > 500 | > 500 | 250 (≈ 1110 µM) | ≥ 500 | 250 | 250 | ≥ 500 | 1110 | > 500 | > 500 |
| COC(=O)[C@H](C)NC(=O)c1cnccn1 (racemic) [PC-DL-Ala-Me, methyl (pyrazine-2-carbonyl)alaninate] | > 500 | ≥ 125 | ≥ 500 | > 500 | > 500 | > 500 | 250 (≈ 52.3 µg/mL) | > 500 | > 500 | > 500 | ≥ 125 | ≥ 500 | ≥ 125 | ≥ 125 | ≥ 500 | ≥ 598 | > 500 | > 500 |
| COC(=O)[C@H](COC(C)(C)C)NC(=O)c1cnccn1 [PC-L-OtBu-Ser-Me, methyl O-(tert-butyl)-N-(pyrazine-2-carbonyl)-L-serinate] | > 500 | 250 (≈ 889 µM) | ≥ 500 | > 500 | > 500 | > 500 | > 500 | > 500 | > 500 | > 500 | 62.5 (≈ 222 µM) | ≥ 500 | ≥ 500 | ≥ 500 | ≥ 500 | ≥ 1780 | > 500 | > 500 |
| COC(=O)[C@H](NC(=O)c1cnccn1)[C@H](C)OC(C)(C)C [PC-D-OtBu-Thr-Me, methyl O-(tert-butyl)-N-(pyrazine-2-carbonyl)-D-threoninate] | > 500 | ≥ 500 | ≥ 500 | > 500 | > 500 | > 500 | > 500 | > 500 | > 500 | > 500 | ≥ 500 | ≥ 500 | 62.5 | 62.5 | ≥ 500 | 212 | > 500 | > 500 |
| CCOC(=O)[C@@H](C)NC(=O)c1cnccn1 [PC-D-Ala-Et, ethyl (pyrazine-2-carbonyl)-D-alaninate] | > 500 | ≥ 125 | ≥ 500 | > 500 | > 500 | > 500 | > 500 | > 500 | > 500 | > 500 | ≥ 125 | ≥ 500 | ≥ 125 | ≥ 125 | ≥ 500 | ≥ 560 | > 500 | > 500 |
| COC(=O)[C@@H](Cc1ccc(O)cc1)NC(=O)c1cnccn1 [PC-D-Tyr-Me, methyl (pyrazine-2-carbonyl)-D-tyrosinate] | > 500 | ≥ 500 | ≥ 500 | > 500 | > 500 | > 500 | > 500 | > 500 | > 500 | > 500 | ≥ 250 | ≥ 500 | 125 | 125 | ≥ 500 | 415 | > 500 | > 500 |
| COC(=O)CC[C@@H](NC(=O)c1cnccn1)C(=O)OC [PC-D-Glu-diMe, dimethyl (pyrazine-2-carbonyl)-D-glutamate] | > 500 | ≥ 500 | ≥ 500 | > 500 | > 500 | > 500 | > 500 | > 500 | > 500 | > 500 | ≥ 500 | ≥ 500 | ≥ 500 | ≥ 500 | ≥ 500 | ≥ 1780 | > 500 | > 500 |
